Experimental data as given in patent publication US12686678B2, “Crystal form of Lanifibranor, preparation method therefor, and use thereof” (INVENTIVA, priority 2020, dated 2026).

Assays:
Format in all cases: physicochemical
[1] = Adhesiveness (material sticking to punch, ENERPAC manual tablet press); settings: about 30 mg, φ8 mm round tooling, 10 kN, held 30 s
Protocol: ENERPAC manual tablet press was used for testing. Approximately 30 mg of Form CSI was weighed and then added into the dies of φ8 mm round tooling, compressed at 10 kN and held for 30 s. The punch was weighed and the amount of material sticking to the punch was calculated. The compression was repeated twice and the maximum amount and average amount of material sticking to the punch during the compression were recorded. […] ENERPAC manual tablet press was used for testing. Approximately 30 mg of Form CSII was weighed and then added into the dies of φ8 mm round tooling, compressed at 10 kN and held for 30 s. The punch was weighed and amount of material sticking to the punch was calculated. The compression was repeated twice and the maximum amount and average amount of material sticking to the punch during the compression were recorded. […] ENERPAC manual tablet press was used for testing. Approximately 30 mg of Form CSIV was weighed and then added into the dies of φ8 mm round tooling, compressed at 10 KN and held for 30 s. The punch was weighed and amount of material sticking to the punch was calculated. The compression was repeated twice and the maximum amount and average amount of material sticking to the punch during the compression were recorded.

[2] = Flowability (compressibility index from bulk and tapped density)
Protocol: Compressibility index is usually utilized to evaluate the flowability of powder or granules during the drug product process. Compressibility index test method is as follows: a certain amount of powder was added into a measuring cylinder and bulk volume was recorded. Then the powder was tapped to make it in the tightest state and the tapped volume was recorded. The bulk density (ρ0) and tapped density (ρf) were calculated and compressibility index was calculated according to c=(ρf−ρ0)/ρf.

[3] = Appearance of powder on sulphuric acid paper
Description: A certain amount of Form CSI was weighed and put on sulphuric acid paper to observe the appearance The appearance of Form CSI is shown in FIG. 15. […] A certain amount of Form CSII was weighed and put in sulphuric acid paper, and the powder state was observed. […] A certain amount of Form CSIV was weighed and put in sulphuric acid paper, and the powder state was observed.

[4] = Physical and chemical stability on storage (XRPD for crystalline form, HPLC for purity)
Protocol: A certain amount of Form CSI of the present disclosure was stored under different conditions of 25° C./60% RH, 40° C./75% RH, and 60° C./75% RH. Crystalline form and chemical purity were checked by XRPD and HPLC, respectively. Open packaged: Put the sample into a glass vial, cover the vial with aluminum toil, and punch 5-10 holes in the foil. Sealed packaged: Put the sample into a glass vial, cap the vial tightly, and seal the vial in an aluminum foil bag. A certain amount of Form CSII of the present disclosure was stored under different conditions of 25° C./60% RH, 40° C./75% RH, and 60° C./75% RH. Crystalline form and chemical purity were checked by XRPD and HPLC, respectively. A certain amount of Form CSIV of the present disclosure was stored under different conditions of 25° C./60% RH, 40° C./75% RH, and 60° C./75% RH. Crystalline form and chemical purity were checked by XRPD and HPLC, respectively.

[5] = Particle size distribution (Mastersizer 3000, wet mode); settings: after 30 seconds of ultrasonication, Isopar G
Protocol: The particle size distribution data in the present disclosure were acquired by an Mastersizer 3000 laser particle size analyzer of Malvern. The test was carried out in wet mode, using a Hydro MV dispersion device, and the dispersant was Isopar G. The parameters are shown in Table 3. A certain amount of Form CSI was added into a glass vial with about a certain volume of Isopar G (containing 0.2% lecithin). The mixture was mixed thoroughly and transferred into the Hydro MV dispersing device. The experiment was started when the obscuration was in appropriate range. The particle size distribution was tested after 30 seconds of ultrasonication.

[6] = Hygroscopicity by dynamic vapor sorption (DVS); settings: for Weight gain from 0 to 60% RH / Weight gain from 0 to 70% RH: DVS, 25° C.; for Crystalline state after DVS: XRPD before and after DVS test
Protocol: Dynamic Vapor Sorption (DVS) was measured via an SMS (Surface Measurement Systems Ltd.) intrinsic DVS instrument. The instrument control software is DVS-Intrinsic control software. Typical Parameters for DVS test are as follows: • Temperature: 25° C. • Gas and flow rate: N2, 200 mL/min • RH range: 0% RH to 95% RH Dynamic vapor sorption (DVS) analyzer was applied to evaluate the hygroscopicity of amorphous with a certain amount of sample. The weight gains at each relative humidity were recorded in a cycle of 0-95% RH-0. […] Dynamic vapor sorption (DVS) analyzer was applied to evaluate hygroscopicity of Form CSI with a certain amount of sample. The weight gains at each relative humidity were recorded in a cycle of 0-95% RH-0. Dynamic vapor sorption (DVS) analyzer was applied to evaluate hygroscopicity of Form CSII with a certain amount of sample. The weight gains at each relative humidity were recorded in a cycle of 50% RH-95% RH-0%-95% RH. Dynamic vapor sorption (DVS) analyzer was applied to evaluate hygroscopicity of Form CSIV and prior art amorphous with certain amounts of samples. The weight gains at each relative humidity were recorded in a cycle of 0-95% RH-0.

[7] = Physical stability upon manual grinding (XRPD); settings: ground manually for 5 minutes in a mortar
Protocol: Form CSII was grounded manually for 5 minutes in a mortar. […] Form CSIV was grounded manually for 5 minutes in a mortar.

[8] = Physical stability upon tableting under different pressures (XRPD)
Description: A certain amount of Form CSII was compressed into tablet under different pressures with suitable tableting die. Crystalline form before and after tableting were checked by XRPD. […] A certain amount of Form CSIV was compressed into tablet under different pressures with suitable tableting die. Crystalline form before and after tableting were checked by XRPD.

[9] = 25° C./60% RH, open packaged, 6 months
[10] = 25° C./60% RH, sealed packaged, 6 months
[11] = 40° C./75% RH, open packaged, 6 months
[12] = 40° C./75% RH, sealed packaged, 6 months
[13] = 60° C./75% RH, open packaged, 3 months
[14] = 60° C./75% RH, sealed packaged, 3 months
[15] = 25° C./60% RH, open packaged, 3 months
[16] = 25° C./60% RH, sealed packaged, 3 months
[17] = 40° C./75% RH, open packaged, 3 months
[18] = 40° C./75% RH, sealed packaged, 3 months
[19] = 60° C./75% RH, open packaged, one month
[20] = 60° C./75% RH, sealed packaged, one month

Row | Compound | Average adhesion amount [1] [mg] | Appearance of powder [3] | Time for which the form is stable (crystalline state doesn't change) ([4]; 25° C./60% RH) | Time for which the form is stable (crystalline state doesn't change) ([4]; 40° C./75% RH) | Time for which the form is stable (crystalline state doesn't change) ([4]; 60° C./75% RH) | Weight gain from 0 to 60% RH ([6]; 0 to 60% RH) [%] | Weight gain from 0 to 70% RH ([6]; 0 to 70% RH) [%] | Crystalline state after DVS [6] | Crystalline state after grinding [7] | Solid form after tableting ([8]; Pressure 5 kN) | Solid form after tableting ([8]; Pressure 10 kN) | Solid form after tableting ([8]; Pressure 20 kN) | Form after storage [4, 15] | Purity change [4, 15] [%] | Form after storage [4, 16] | Purity change [4, 16] [%] | Form after storage [4, 17] | Purity change [4, 17] [%] | Form after storage [4, 18] | Purity change [4, 18] [%] | further results
1 | O=C(O)CCCc1cc2cc(Cl)ccc2n1S(=O)(=O)c1ccc2ncsc2c1 [Form CSI, 5-Chloro-1-[(6-benzothiazolyl)sulfonyl]-1H-indole-2-butanoic acid] | 0.45 | powdery with uniformly dispersed and has no adhesion phenomenon | at least 6 months | at least 6 months | at least 3 months | 0.17 | 0.17 | remains unchanged | – | – | – | – | – | – | – | – | – | – | – | – | Bulk density [2]: 0.405 g/mL; Tapped density [2]: 0.526 g/mL; Flowability ([2]; class by compressibility index, ICH Q4B Annex 13): Passable (21-25); Form after storage [4, 9]: Form CSI; Purity change [4, 9]: 0.02%; Form after storage [4, 10]: Form CSI; Purity change [4, 10]: 0.03%; Form after storage [4, 11]: Form CSI; Purity change [4, 11]: 0.05%; Form after storage [4, 12]: Form CSI; Purity change [4, 12]: 0.01%; Form after storage [4, 13]: Form CSI; Purity change [4, 13]: 0.08%; Form after storage [4, 14]: Form CSI; Purity change [4, 14]: 0.07%; D10 [5]: 0.725 μm; D50 [5]: 1.89 μm; D90 [5]: 7.15 μm; MV [5]: 4.54 μm
2 | O=C(O)CCCc1cc2cc(Cl)ccc2n1S(=O)(=O)c1ccc2ncsc2c1 [Form CSII, 5-Chloro-1-[(6-benzothiazolyl)sulfonyl]-1H-indole-2-butanoic acid] | 0.20 | powdery with uniformly dispersed and has no adhesion phenomenon | at least 3 months | at least 3 months | at least one month | 0.21 | 0.27 | remains unchanged | remains unchanged | Form CSII | Form CSII | Form CSII | Form CSII | 0.09 | Form CSII | 0.06 | Form CSII | 0.07 | Form CSII | 0.01 | Form after storage [4, 19]: Form CSII; Purity change [4, 19]: 0.05%
3 | O=C(O)CCCc1cc2cc(Cl)ccc2n1S(=O)(=O)c1ccc2ncsc2c1 [Form CSIV, 5-Chloro-1-[(6-benzothiazolyl)sulfonyl]-1H-indole-2-butanoic acid] | 0.05 | powdery with uniformly dispersed and has no adhesion phenomenon | at least 3 months | at least 3 months | at least one month | 0.23 | 0.27 | remains unchanged | remains unchanged | Form CSIV | Form CSIV | Form CSIV | Form CSIV | 0.02 | Form CSIV | 0.04 | Form CSIV | 0.00 | Form CSIV | 0.03 | Form after storage [4, 19]: Form CSIV; Purity change [4, 19]: 0.04%; Form after storage [4, 20]: Form CSIV; Purity change [4, 20]: 0.06%
4 | O=C(O)CCCc1cc2cc(Cl)ccc2n1S(=O)(=O)c1ccc2ncsc2c1 [amorphous, 5-Chloro-1-[(6-benzothiazolyl)sulfonyl]-1H-indole-2-butanoic acid, reference compound] | – | – | – | – | – | 0.94 | 1.18 | – | – | – | – | – | – | – | – | – | – | – | – | – | Weight gain of amorphous relative to that of Form CSI ([6]; 0 to 60% RH): about 6 times; Weight gain of amorphous relative to that of Form CSII ([6]; 0 to 60% RH): about 4 times; Weight gain of amorphous relative to that of Form CSIV ([6]; 0 to 60% RH and 0 to 70% RH): about 4 times; Weight gain of amorphous relative to that of Form CSI ([6]; 0 to 70% RH): ~7 times; Weight gain of amorphous relative to that of Form CSII ([6]; 0 to 70% RH): ~5 times; Weight gain from 0 to 60% RH ([6]; 0 to 60% RH, listed as prior art amorphous): 0.94%; Weight gain from 0 to 70% RH ([6]; 0 to 70% RH, listed as prior art amorphous): 1.18%
